Tested on: HLA-B14:02 wt
Test: Binding stability assay, refolded HLA-I/peptide complex, ELISA
Parameters: species or system human
Procedure: W97R mutation was introduced into HLA-B14:02 wt by overlap extension PCR and confirmed by DNA sequencing. BL21(DE3)pLys bacterial cells were used to produce HLA-B14:02 wt and W97R as inclusion bodies. Four peptides with histidine or arginine at P2 (A[H/R]TKPRPAL, G[H/R]YDRSKSL, A[H/R]FAKSISL, H[H/R]FEKAVTL) were synthesized at the Peptide Facility (UNIL, Lausanne) with free N and C-termini (1mg of each peptide, > 80% purity). Peptides with histidine at P2 come from our HLA peptidomics data and were assigned to HLA-B15:18 by our mixture model algorithm. Based on our analysis of HLA sequence and structure, peptides with histidine at P2 are predicted to interact with HLA-B14:02 W97R, while peptides with arginine at P2 are predicted to bind better HLA-B14:02 wt.
Synthetic peptides were incubated separately with denaturated […] mutant refolded by dilution in the presence of biotinylated beta-2 microglobulin proteins at temperature T = 4°C for 48 hours. […] Negative controls consist of absence of peptides. koff were determined by fitting exponential curves to the light intensity values obtained by ELISA at different time points. […] For two peptides showing exceptionally high binding stability, only lower bounds on half-lives could be determined (dashed lines in Fig 5D).

Question: For “AHTKPRPAL [synthetic HLA-B15:18 ligand from HLA peptidomics data, histidine at P2, free N and C-termini]”, which “binding of the peptide” value is on record?
Answer: Its value is “fully abolished”.
